{"source": "patent US5236904A", "about": "“Erection-inducing methods and compositions” (Senetek, plc, priority 1989, dated 1993)", "key": {"[1]": {"system": "human males", "conditions": "cited from earlier work; for priapism: treatment of impotence"}, "[2]": {"system": "males who are impotent due to severe atherosclerosis", "conditions": "cited from earlier work; for efficacy in impotence due to severe atherosclerosis: in vivo"}, "[3]": {"system": "males with psychogenic or neurogenic dysfunction, severe atherosclerosis not involved", "conditions": "cited from earlier work; for erection on intracavernosal injection: severe atherosclerosis not involved"}, "[4]": {"system": "human suffering from impotence, of which severe atherosclerosis is a cause", "assay": "Intracavernosal injection coupled with sexual stimulation in males with impotence caused by severe atherosclerosis", "type": "in vivo", "method": "Thus, between about 0.1 ml and about 5 ml, and preferably about 1 ml, of a physiologically acceptable composition comprising one of VIP or PHM or a mixture thereof and an alpha-adrenergic blocker is administered as a bolus by intracavernosal injection during, or prior to the initiation of, sexual stimulation and preferably with the penis constricted at its base for between about 1 minute and about 15 minutes (preferably about 5 minutes-about 10 minutes) after the injection."}, "[5]": {"system": "human males", "conditions": "in vivo", "procedure": "Priapism is a serious, deleterious side effect of treatment of erectile insufficiency with these drugs. Beyond the embarrassment that may be caused for some men, priapism is usually painful, irreversibly damages erectile tissue, and, to be relieved, requires bleeding or pharmacological intervention (e.g., injection of a sympathomimetic drug such as adrenaline).\nPreferably 1 ml of the preferred composition is administered as a bolus by injection into a corpus cavernosum while the penis is constricted at its base with a tourniquet. About 5-10 minutes after the injection, the tourniquet is released and, if not already started before the tourniquet is released, sexual stimulation is begun."}, "[6]": {"system": "normal male", "conditions": "cited from earlier work"}, "[7]": {"conditions": "aqueous composition; cited from earlier work"}}, "note": "“Also recorded” adds a separate entry of the source."}
{"compound": "COc1ccc(Cc2nccc3cc(OC)c(OC)cc23)cc1OC", "note": "[papaverine]", "values": [{"measurement": "pain after injection", "setting": "[1]; even if priapism does not occur", "value": "painful, burning sensation in the first two or so minutes after the injection"}, {"measurement": "fibrosis", "setting": "[1]; repeated use", "value": "undesirable, extensive intracavernous fibrosis"}, {"measurement": "priapism", "setting": "[1]", "value": "often results in priapism"}, {"measurement": "efficacy in impotence due to severe atherosclerosis", "setting": "[2]", "value": "ineffective; also recorded: not susceptible to treatment"}, {"measurement": "erection on intracavernosal injection", "setting": "[3]", "value": "cause an erection sufficient for vaginal penetration"}]}
{"compound": "CC(COc1ccccc1)N(CCCl)Cc1ccccc1", "note": "(centres unmarked) [phenoxybenzamine]", "values": [{"measurement": "priapism", "setting": "[1]", "value": "often results in priapism"}, {"measurement": "efficacy in impotence due to severe atherosclerosis", "setting": "[2]", "value": "not susceptible to treatment"}, {"measurement": "erection on intracavernosal injection", "setting": "[3]", "value": "cause an erection sufficient for vaginal penetration"}]}
{"compound": "human vasoactive intestinal peptide [VIP]", "values": [{"measurement": "erection sufficient for vaginal penetration", "setting": "[4]; 30 μg neuropeptide together with alpha-adrenergic blocker, in most cases", "value": "sufficient to induce an erection sufficient for vaginal penetration"}, {"measurement": "treatment of impotence, neuropeptide in combination with an alpha-adrenergic blocker", "setting": "[4]; intracavernosal injection with alpha-adrenergic blocker such as phentolamine or prazosin, coupled with sexual stimulation", "value": "treated effectively"}, {"measurement": "induction of erections, neuropeptide alone", "setting": "[4]; without alpha-adrenergic blocker", "value": "not effective"}, {"measurement": "systemic side effects due to administration", "setting": "[1]; background statement", "value": "flushing of the skin and hypotension"}, {"measurement": "induction of erections, VIP alone coupled with sexual stimulation", "setting": "[2]; impotent due to severe atherosclerosis", "value": "does not induce erections"}, {"measurement": "priapism or burning pain on induction of an erection", "setting": "[5]", "value": "does not entail priapism or the burning pain"}, {"measurement": "erectile response with sexual stimulation", "setting": "[6]; as little as 1 μg (at 1 μg/ml of diluent), visual and/or vibration stimulation", "value": "facilitates full erection"}, {"measurement": "erectile response without sexual stimulation", "setting": "[6]; up to 20 μg (at 20 μg/ml of diluent), no sexual stimulation", "value": "only slight swelling (slight tumescence) of the penis but not an erection"}]}
{"compound": "Cc1ccc(N(CC2=NCCN2)c2cccc(O)c2)cc1", "note": "[phentolamine]", "values": [{"measurement": "efficacy in impotence due to severe atherosclerosis", "setting": "[2]", "value": "not susceptible to treatment"}, {"measurement": "duration of erection", "setting": "[3]; compared with papaverine or phenoxybenzamine", "value": "significantly shorter duration"}, {"measurement": "erection on intracavernosal injection", "setting": "[3]", "value": "causes an erection sufficient for vaginal penetration"}, {"measurement": "stability in solution", "setting": "[7]", "value": "lability"}]}
